The values that follow come from patent US20230265151A1, “GIP/GLP1 CO-AGONIST COMPOUNDS” (priority 2020, published 2023).

Structures are written as SMILES. Where two headings read alike, the source gives them in different places. A value given as a limit tells only on which side of the number the result lay.

What all share (assay type): cell-based
One experiment concerns the target T1, hGIPR (Homo sapiens, UniProt P48546).
T1 construct: expressed in transfected cells
T1 sequence (P48546 22-466): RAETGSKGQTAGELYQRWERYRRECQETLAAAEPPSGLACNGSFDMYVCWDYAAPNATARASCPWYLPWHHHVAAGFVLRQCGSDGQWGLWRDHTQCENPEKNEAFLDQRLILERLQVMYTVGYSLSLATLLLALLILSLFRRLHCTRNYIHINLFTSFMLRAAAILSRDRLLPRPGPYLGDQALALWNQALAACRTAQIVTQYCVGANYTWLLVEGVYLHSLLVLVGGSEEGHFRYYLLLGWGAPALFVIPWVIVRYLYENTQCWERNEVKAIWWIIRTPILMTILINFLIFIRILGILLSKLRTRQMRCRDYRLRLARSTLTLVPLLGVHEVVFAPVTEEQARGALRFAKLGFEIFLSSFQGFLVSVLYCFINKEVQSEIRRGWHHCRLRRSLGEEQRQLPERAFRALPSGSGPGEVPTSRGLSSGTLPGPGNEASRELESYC
Kind of experiment: Functional cAMP formation (HTRF) in HEK-293 clonal cells expressing hGIPR, 0.1% bovine casein, without or with 1.0% human serum albumin. To be noted: for EC50: geometric mean. The procedure, abridged: (§1)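 Cells were stimulated with peptide for 30 min at 37° C, then intracellular cAMP was measured by competitive HTRF (665/620 nm ratio) and converted to nM using a cAMP standard curve. Relative EC50 and Emax came from four-parameter logistic fits of percent maximal response against peptide concentration.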
On the technique in general: Changes in cAMP serve as a functional read-out for many G protein-coupled receptors.

In another experiment the target is hGLP-1R (Homo sapiens, UniProt P43220). Kind of experiment: Functional cAMP formation (HTRF) in HEK-293 clonal cells expressing hGLP-1R, 0.1% bovine casein, without or with 1.0% human serum albumin. Details: expressed in transfected cells. To be noted: for EC50: geometric mean; for Emax: percent of maximal response to GLP-1(7-36)NH2. The procedure, abridged: as §1

The target in a further experiment is T2, hGCGR (Homo sapiens, UniProt P47871).
T2 construct: expressed in transfected cells
Kind of experiment: Functional cAMP formation (HTRF) in HEK-293 clonal cells expressing hGCGR, 0.1% bovine casein, without or with 1.0% human serum albumin. The procedure, abridged:
as §1

T2 sequence (P47871 26-477): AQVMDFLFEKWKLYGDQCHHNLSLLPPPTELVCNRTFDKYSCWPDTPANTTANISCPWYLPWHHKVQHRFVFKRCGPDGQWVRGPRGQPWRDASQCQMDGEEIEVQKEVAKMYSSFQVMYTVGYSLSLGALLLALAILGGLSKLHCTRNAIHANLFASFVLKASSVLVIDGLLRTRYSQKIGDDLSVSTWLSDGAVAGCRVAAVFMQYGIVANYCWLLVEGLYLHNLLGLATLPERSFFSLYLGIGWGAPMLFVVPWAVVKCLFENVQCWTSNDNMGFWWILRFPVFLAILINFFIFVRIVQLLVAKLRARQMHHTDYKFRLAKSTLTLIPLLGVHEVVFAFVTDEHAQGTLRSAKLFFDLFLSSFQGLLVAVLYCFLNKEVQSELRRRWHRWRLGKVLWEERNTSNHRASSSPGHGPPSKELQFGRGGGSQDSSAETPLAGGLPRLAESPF
Chain of hGLP-1R (P43220 24-463): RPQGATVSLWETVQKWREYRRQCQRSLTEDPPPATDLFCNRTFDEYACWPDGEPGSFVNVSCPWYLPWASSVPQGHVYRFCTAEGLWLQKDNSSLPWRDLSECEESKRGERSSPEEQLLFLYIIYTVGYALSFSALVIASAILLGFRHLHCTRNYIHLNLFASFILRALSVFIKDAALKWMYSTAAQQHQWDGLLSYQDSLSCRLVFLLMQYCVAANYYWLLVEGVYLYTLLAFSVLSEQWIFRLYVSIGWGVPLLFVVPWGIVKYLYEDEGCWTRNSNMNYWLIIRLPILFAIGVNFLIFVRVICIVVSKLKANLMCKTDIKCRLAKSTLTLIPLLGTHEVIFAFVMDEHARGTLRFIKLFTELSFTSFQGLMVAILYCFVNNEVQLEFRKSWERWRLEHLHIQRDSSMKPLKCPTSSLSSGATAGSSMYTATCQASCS

Broadly, the EC50 is the concentration giving half of the maximal effect. One may read the Emax as the maximal effect, on the per cent scale that the assay sets. Take `CC[C@H](C)[C@H](NC(=O)[C@H](CCCN)NC(=O)[C@H](CC(=O)O)NC(=O)[C@H](CC(C)C)NC(=O)[C@](C)(CC(C)C)NC(=O)[C@@H](NC(=O)[C@H](CO)NC(=O)[C@H](Cc1ccncc1)NC(=O)[C@H](CC(=O)O)NC(=O)[C@H](CO)NC(=O)[C@@H](NC(=O)[C@](C)(Cc1ccccc1F)NC(=O)[C@@H](NC(=O)CNC(=O)[C@H](CCC(=O)O)NC(=O)C(C)(C)NC(=O)[C@@H](N)Cc1ccc(O)cc1)[C@@H](C)O)[C@@H](C)O)[C@@H](C)CC)C(=O)N[C@@H](C)C(=O)N[C@@H](CCC(N)=O)C(=O)NC(C)(C)C(=O)N[C@@H](CCCCNC(=O)COCCOCCNC(=O)COCCOCCNC(=O)CC[C@H](NC(=O)CCCCCCCCCCCCC(=O)O)C(=O)O)C(=O)N[C@@H](Cc1ccccc1)C(=O)N[C@H](C(=O)N[C@H](CCC(=O)O)C(=O)N[C@@](C)(Cc1ccc(O)cc1)C(=O)N[C@@H](CC(C)C)C(=O)N[C@H](C(=O)N[C@@H](CCC(=O)O)C(=O)NCC(=O)NCC(=O)N1CCC[C@H]1C(=O)N[C@@H](CO)C(=O)N[C@@H](CO)C(=O)NCC(=O)N[C@@H](C)C(=O)N1CCC[C@H]1C(=O)N1CCC[C@H]1C(=O)N1CCC[C@H]1C(=O)N[C@@H](CO)C(=O)N[C@@H](CCCCNC(=O)COCCOCCNC(=O)COCCOCCNC(=O)CC[C@H](NC(=O)CCCCCCCCCCCCC(=O)O)C(=O)O)C(N)=O)[C@@H](C)CC)[C@@H](C)CC` [Example 75]: the EC50 was 2.18 nM at hGIPR (0.1% bovine casein and 1.0% human serum albumin, 37° C., read-out: hGIPR EC50, nM (SEM, n)); 0.0182 nM on hGIPR (cAMP, incubated at 37° C., 0.1% bovine casein (no human serum albumin), read-out: hGIPR EC50, nM (SEM, n)); 41.3 nM on hGLP-1R (0.1% bovine casein and 1.0% human serum albumin, 37° C., read-out: hGLP-1R EC50, nM (SEM, n)); 0.411 nM at hGLP-1R (cAMP, incubated at 37° C., 0.1% bovine casein (no human serum albumin), read-out: hGLP-1R EC50, nM (SEM, n)); greater than 9950 nM on hGCGR (0.1% bovine casein and 1.0% human serum albumin, 37° C., geometric mean, read-out: hGCGR EC50, nM (SEM, n)); greater than 9950 nM on hGCGR (cAMP, incubated at 37° C., 0.1% bovine casein (no human serum albumin), geometric mean, read-out: hGCGR EC50, nM (SEM, n)). Also, the Emax at hGIPR (HEK293, 0.1% bovine casein and 1.0% human serum albumin, 37° C., percent of maximal response to GIP(1-42)NH2, read-out: hGIPR Emax, % ± SEM) stood at 87.8 ± 3.33%; on hGIPR (HEK293, percent of maximal response to GIP(1-42)NH2, 37° C., 0.1% bovine casein, arithmetic mean, read-out: hGIPR Emax, % ± SEM), 92.3 ± 0.78%; at hGLP-1R (HEK293, 0.1% bovine casein and 1.0% human serum albumin, 37° C., read-out: hGLP-1R Emax, % ± SEM), 97 ± 8.3%.

On to `CC[C@H](C)[C@H](NC(=O)[C@H](CCCN)NC(=O)[C@H](CC(=O)O)NC(=O)[C@H](CC(C)C)NC(=O)[C@](C)(CC(C)C)NC(=O)[C@@H](NC(=O)[C@H](CO)NC(=O)[C@H](Cc1ccc2ccccc2c1)NC(=O)[C@H](CC(=O)O)NC(=O)[C@H](CO)NC(=O)[C@@H](NC(=O)[C@](C)(Cc1ccccc1F)NC(=O)[C@@H](NC(=O)CNC(=O)[C@H](CCC(=O)O)NC(=O)C(C)(C)NC(=O)[C@@H](N)Cc1ccc(O)cc1)[C@@H](C)O)[C@@H](C)O)[C@@H](C)CC)C(=O)N[C@@H](C)C(=O)N[C@@H](CCC(N)=O)C(=O)NC(C)(C)C(=O)N[C@@H](CCCCNC(=O)COCCOCCNC(=O)COCCOCCNC(=O)CC[C@H](NC(=O)CCCCCCCCCOc1ccc(C(=O)O)cc1)C(=O)O)C(=O)N[C@@H](Cc1ccccc1)C(=O)N[C@H](C(=O)N[C@H](CCC(=O)O)C(=O)N[C@@](C)(Cc1ccc(O)cc1)C(=O)N[C@@H](CC(C)C)C(=O)N[C@H](C(=O)N[C@@H](CCCCNC(=O)COCCOCCNC(=O)COCCOCCNC(=O)CC[C@H](NC(=O)CCCCCCCCCOc1ccc(C(=O)O)cc1)C(=O)O)C(=O)NCC(=O)NCC(=O)N1CCC[C@H]1C(=O)N[C@@H](CO)C(=O)N[C@@H](CO)C(=O)NCC(=O)N[C@@H](C)C(=O)N1CCC[C@H]1C(=O)N1CCC[C@H]1C(=O)N1CCC[C@H]1C(=O)N[C@@H](CO)C(N)=O)[C@@H](C)CC)[C@@H](C)CC` [Example 284], for which the Emax on hGIPR (HEK293, read-out: hGIPR Emax, % ± SEM, cAMP, 37° C., 0.1% bovine casein, percent of maximal response to GIP(1-42)NH2, arithmetic mean) was 98.3%; on hGLP-1R (HEK293, read-out: hGLP-1R Emax, % ± SEM, 0.1% bovine casein and 1.0% human serum albumin, 37° C.), 112%; at hGLP-1R (HEK293, read-out: hGLP-1R Emax, % ± SEM, cAMP, 37° C., 0.1% bovine casein, arithmetic mean), 110%. The EC50 at hGIPR (hGIPR EC50, nM (SEM, n), cAMP, 37° C., 0.1% bovine casein (no human serum albumin)) was 0.0389 nM; on hGLP-1R (hGLP-1R EC50, nM (SEM, n), cAMP, 37° C., 0.1% bovine casein (no human serum albumin)), 0.505 nM; on hGCGR (hGCGR EC50, nM (SEM, n), 0.1% bovine casein and 1.0% human serum albumin, 37° C., geometric mean), greater than 9950 nM; at hGCGR (hGCGR EC50, nM (SEM, n), cAMP, 37° C., 0.1% bovine casein (no human serum albumin), geometric mean), greater than 9950 nM.

As for `CC[C@H](C)[C@H](NC(=O)[C@H](CC(C)C)NC(=O)[C@](C)(Cc1ccc(O)cc1)NC(=O)[C@H](CCCCNC(=O)COCCOCCNC(=O)COCCOCCNC(=O)[C@H]1CC[C@H](CNC(=O)CC[C@H](NC(=O)CCCCCCCCCCCCC(=O)O)C(=O)O)CC1)NC(=O)[C@@H](NC(=O)[C@H](Cc1ccccc1)NC(=O)[C@H](CCCN)NC(=O)C(C)(C)NC(=O)[C@H](CCC(N)=O)NC(=O)[C@H](C)NC(=O)[C@H](CCC(N)=O)NC(=O)[C@H](CCCN)NC(=O)[C@H](CC(=O)O)NC(=O)[C@H](CC(C)C)NC(=O)[C@](C)(CC(C)C)NC(=O)[C@@H](NC(=O)C(C)(C)NC(=O)[C@H](Cc1ccncc1)NC(=O)[C@H](CC(=O)O)NC(=O)[C@H](CO)NC(=O)[C@@H](NC(=O)[C@](C)(Cc1ccccc1F)NC(=O)[C@@H](NC(=O)CNC(=O)[C@H](CCC(=O)O)NC(=O)C(C)(C)NC(=O)[C@@H](N)Cc1ccc(O)cc1)[C@@H](C)O)[C@@H](C)O)[C@@H](C)CC)[C@@H](C)CC)C(=O)N[C@@H](CCCCNC(=O)COCCOCCNC(=O)COCCOCCNC(=O)[C@H]1CC[C@H](CNC(=O)CC[C@H](NC(=O)CCCCCCCCCCCCC(=O)O)C(=O)O)CC1)C(=O)NCC(=O)NCC(=O)N1CCC[C@H]1C(=O)N[C@@H](CO)C(=O)N[C@@H](CO)C(=O)NCC(=O)N[C@@H](C)C(=O)N1CCC[C@H]1C(=O)N1CCC[C@H]1C(=O)N1CCC[C@H]1C(=O)N[C@@H](CO)C(N)=O` [Example 470], the maximal effect (Emax) at hGIPR (HEK293, cAMP, 37° C., 0.1% bovine casein and 1.0% human serum albumin, percent of maximal response to GIP(1-42)NH2, read-out: hGIPR Emax, % ± SEM) is 93.9%; on hGLP-1R (HEK293, cAMP, 37° C., 0.1% bovine casein and 1.0% human serum albumin, read-out: hGLP-1R Emax, % ± SEM), 113%; at hGLP-1R (HEK293, cAMP, 37° C., 0.1% bovine casein, arithmetic mean, read-out: hGLP-1R Emax, % ± SEM) it was 112%. Besides, the EC50 is 0.0103 nM at hGIPR (cAMP, 37° C., 0.1% bovine casein (no human serum albumin), read-out: hGIPR EC50, nM (SEM, n)); 0.127 nM at hGLP-1R (cAMP, 37° C., 0.1% bovine casein (no human serum albumin), read-out: hGLP-1R EC50, nM (SEM, n)); greater than 9950 nM at hGCGR (cAMP, 37° C., 0.1% bovine casein (no human serum albumin), geometric mean, read-out: hGCGR EC50, nM (SEM, n)); greater than 9950 nM on hGCGR (cAMP, 37° C., 0.1% bovine casein and 1.0% human serum albumin, geometric mean (SEM, n), read-out: hGCGR EC50, nM (SEM, n)).
